Assay results reported in ChEMBL document CHEMBL3997814, “Identification of novel inverse agonists of estrogen-related receptors ERRγ and ERRβ” (Bioorg Med Chem, 2017).
Active and inactive are the calls of the source. The calls are words filed in the database; no cut-off is given here.

The molecules below were run against T1, Steroid hormone receptor ERR1 (Homo sapiens) (UniProt P11474) (assay: Inverse agonist activity at GAL4-DNA binding domain-fused human ERRalpha ligand binding domain expressed in African green monkey CV1 cells assessed as decrease in receptor transcriptional activity after 45 hrs by luciferase reporter gene assay).
T1 sequence (whole entry): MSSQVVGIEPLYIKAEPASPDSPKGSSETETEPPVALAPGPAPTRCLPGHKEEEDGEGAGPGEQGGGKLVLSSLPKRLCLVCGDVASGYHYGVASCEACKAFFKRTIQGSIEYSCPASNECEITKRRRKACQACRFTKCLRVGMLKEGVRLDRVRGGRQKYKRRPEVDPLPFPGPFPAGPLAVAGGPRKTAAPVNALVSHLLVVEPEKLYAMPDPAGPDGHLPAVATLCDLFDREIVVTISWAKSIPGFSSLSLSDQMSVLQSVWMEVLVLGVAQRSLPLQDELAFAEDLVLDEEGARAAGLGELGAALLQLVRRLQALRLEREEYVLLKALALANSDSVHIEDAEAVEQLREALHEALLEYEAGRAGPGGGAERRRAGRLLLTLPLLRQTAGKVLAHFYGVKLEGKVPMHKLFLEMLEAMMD
Type: cell-based
For `CC/C(=C(/c1ccc(O)cc1)c1ccc(OCCN(C)C)cc1)c1ccccc1`, the Activity was “inactive”.

These molecules were tested against Estrogen receptor beta (Homo sapiens) (UniProt Q92731) (assay: Inverse agonist activity at human ERbeta expressed in African green monkey CV1 cells assessed as decrease in receptor transcriptional activity up to 3 uM after 45 hrs by luciferase reporter gene assay).
Chain of Estrogen receptor beta (Homo sapiens) (Q92731 whole entry): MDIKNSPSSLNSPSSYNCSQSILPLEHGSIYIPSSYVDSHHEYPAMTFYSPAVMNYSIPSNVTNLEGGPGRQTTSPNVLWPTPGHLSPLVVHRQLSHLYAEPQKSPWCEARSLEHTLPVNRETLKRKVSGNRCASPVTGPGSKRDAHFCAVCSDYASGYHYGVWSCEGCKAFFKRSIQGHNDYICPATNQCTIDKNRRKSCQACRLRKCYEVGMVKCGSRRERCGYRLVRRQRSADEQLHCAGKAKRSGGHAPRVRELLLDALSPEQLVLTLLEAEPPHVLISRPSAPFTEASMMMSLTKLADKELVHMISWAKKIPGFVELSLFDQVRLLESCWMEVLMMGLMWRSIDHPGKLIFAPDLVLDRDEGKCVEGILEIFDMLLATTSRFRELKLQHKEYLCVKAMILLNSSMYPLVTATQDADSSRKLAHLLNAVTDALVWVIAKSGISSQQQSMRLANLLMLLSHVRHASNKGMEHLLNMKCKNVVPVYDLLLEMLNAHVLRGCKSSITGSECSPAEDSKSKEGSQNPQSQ
Type: cell-based
`COC(=O)C(C)C/C(=C(\c1ccc(O)cc1)c1ccc(OCCN(C)C)cc1)c1ccccc1` (stereo not given) was tested, and the Activity was “inactive”.
`COC(=O)CC/C(=C(\c1ccc(O)cc1)c1ccc(OCCN(C)C)cc1)c1ccccc1` was tested, and the Activity was “inactive”.

The molecules below were run against T1, Steroid hormone receptor ERR1 (Homo sapiens) (assay: Inverse agonist activity at GAL4-DNA binding domain-fused human ERRalpha ligand binding domain expressed in African green monkey CV1 cells assessed as decrease in receptor transcriptional activity at 10 uM after 45 hrs by luciferase reporter gene assay).
Type: cell-based
In the case of `CC(C)/C(=C(\c1ccc(O)cc1)c1ccc(OCCN(C)C)cc1)c1ccccc1`, the Activity is reported as “inactive”.
In the case of `CC(=O)Oc1ccc(/C(=C(\CCCO)c2ccccc2)c2ccc(OCCN(C)C)cc2)cc1`, the Activity is reported as “inactive”.
`CC(=O)Oc1ccc(/C(=C(/c2ccccc2)C(C)C)c2ccc(OCCN(C)C)cc2)cc1` was tested, and the Activity was “inactive”.
In the case of `COC(=O)C(C)C/C(=C(\c1ccc(O)cc1)c1ccc(OCCN(C)C)cc1)c1ccccc1` (stereo not given), the Activity is reported as “inactive”.
With `CC(CO)C/C(=C(\c1ccc(O)cc1)c1ccc(OCCN(C)C)cc1)c1ccccc1` (stereo not given) the Activity was “inactive”.
For `CC(=O)Oc1ccc(/C(=C(\CC(C)CO)c2ccccc2)c2ccc(OCCN(C)C)cc2)cc1` (stereo not given), the Activity was “inactive”.
With `COC(=O)CC/C(=C(\c1ccc(O)cc1)c1ccc(OCCN(C)C)cc1)c1ccccc1` the Activity was “inactive”.
`CC/C(=C(\c1ccc(O)cc1)c1ccc(OCCN(C)C)cc1)c1ccccc1` was tested, and the Activity was “inactive”.
`CC(C)C/C(=C(\c1ccc(O)cc1)c1ccc(OCCN(C)C)cc1)c1ccccc1` was tested, and the Activity was “inactive”.
For `COC(=O)CCC(=C(c1ccc(O)cc1)c1ccc(O)cc1)c1ccccc1`, the Activity was “inactive”.
With `COC(=O)C(C)CC(=C(c1ccc(O)cc1)c1ccc(O)cc1)c1ccccc1` (stereo not given) the Activity was “inactive”.
In the case of `CN(C)CCOc1ccc(/C(=C(/CCCO)c2ccccc2)c2ccc(O)cc2)cc1`, the Activity is reported as “inactive”.

The molecules below were run against T2, Estrogen receptor (Homo sapiens) (UniProt P03372) (assay: Inverse agonist activity at human ERalpha expressed in African green monkey CV1 cells assessed as decrease in receptor transcriptional activity up to 3 uM after 45 hrs by luciferase reporter gene assay).
T2 sequence (whole entry): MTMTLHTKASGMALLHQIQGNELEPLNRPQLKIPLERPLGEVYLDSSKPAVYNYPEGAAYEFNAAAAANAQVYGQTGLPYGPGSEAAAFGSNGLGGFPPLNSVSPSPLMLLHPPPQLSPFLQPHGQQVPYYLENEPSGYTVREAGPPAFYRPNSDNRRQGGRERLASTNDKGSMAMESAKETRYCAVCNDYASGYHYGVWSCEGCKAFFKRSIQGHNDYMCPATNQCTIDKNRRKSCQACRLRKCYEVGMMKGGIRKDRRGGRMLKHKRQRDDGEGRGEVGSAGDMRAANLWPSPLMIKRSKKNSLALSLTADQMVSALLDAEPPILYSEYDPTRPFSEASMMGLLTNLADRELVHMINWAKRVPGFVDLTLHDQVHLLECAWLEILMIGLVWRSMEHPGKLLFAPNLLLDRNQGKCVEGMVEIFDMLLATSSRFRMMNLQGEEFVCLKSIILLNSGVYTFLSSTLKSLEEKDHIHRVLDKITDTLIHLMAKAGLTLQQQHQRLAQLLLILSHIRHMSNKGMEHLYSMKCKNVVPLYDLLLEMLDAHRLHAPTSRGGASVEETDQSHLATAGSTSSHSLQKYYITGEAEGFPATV
Type: cell-based
For `COC(=O)C(C)C/C(=C(\c1ccc(O)cc1)c1ccc(OCCN(C)C)cc1)c1ccccc1` (stereo not given), the Activity was “inactive”.
`COC(=O)CC/C(=C(\c1ccc(O)cc1)c1ccc(OCCN(C)C)cc1)c1ccccc1` was tested, and the Activity was “inactive”.

The molecules below were run against T2, Estrogen receptor (Homo sapiens) (assay: Antagonist activity at human ERalpha expressed in African green monkey CV1 cells assessed as decrease in receptor transcriptional activity after 45 hrs by luciferase reporter gene assay).
Type: cell-based
`CC(=O)Oc1ccc(/C(=C(/c2ccccc2)C(C)C)c2ccc(OCCN(C)C)cc2)cc1` was tested, and the inhibition was “Active”.

Each molecule was assayed against T3, Estrogen-related receptor gamma (Mus musculus, UniProt P62509).
T3 sequence (P62509 whole entry): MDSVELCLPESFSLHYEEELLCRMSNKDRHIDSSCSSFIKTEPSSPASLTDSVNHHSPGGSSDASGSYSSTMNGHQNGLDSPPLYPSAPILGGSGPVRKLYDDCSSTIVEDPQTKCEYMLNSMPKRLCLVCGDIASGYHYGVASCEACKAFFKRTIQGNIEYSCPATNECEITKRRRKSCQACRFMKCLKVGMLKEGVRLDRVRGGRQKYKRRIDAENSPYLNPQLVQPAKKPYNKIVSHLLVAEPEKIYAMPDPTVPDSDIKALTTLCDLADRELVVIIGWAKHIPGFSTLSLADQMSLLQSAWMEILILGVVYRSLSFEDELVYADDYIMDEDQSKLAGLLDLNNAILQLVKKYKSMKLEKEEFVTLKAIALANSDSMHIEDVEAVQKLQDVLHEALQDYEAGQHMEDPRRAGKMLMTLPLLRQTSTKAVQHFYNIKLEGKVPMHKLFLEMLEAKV
Description: Inverse agonist activity at GAL4-DNA binding domain-fused mouse ERRgamma ligand binding domain expressed in African green monkey CV1 cells assessed as decrease in receptor transcriptional activity after 45 hrs by luciferase reporter gene assay
`CC(=O)Oc1ccc(/C(=C(\CCCO)c2ccccc2)c2ccc(OCCN(C)C)cc2)cc1` was tested, and the IC50 was 300 nM.
`CC(C)C/C(=C(\c1ccc(O)cc1)c1ccc(OCCN(C)C)cc1)c1ccccc1` gave an IC50 of 1000 nM.
